Assay results published in ChEMBL document CHEMBL1201862, “PubChem BioAssay data set” (2004).
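Interpolation was linear, between the two tested concentrations surrounding the appropriate level; five concentrations were tested over 48 hours in 96-well plates. At the GI50, growth is halved.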 The source made the active and inactive calls. Cut-off read from the data, not from the text of the source: active = GI50 up to about 1.1 µM and inactive = higher.

What was measured:
Assay in all cases: NCI anticancer screen, dose series, 48 h
SN12C = system: SN12C
MOLT-4 = system: MOLT-4
U-251 = system: U-251
UACC-257 = system: UACC-257
EKVX = system: EKVX
OVCAR-8 = system: OVCAR-8
NCI-H460 = system: NCI-H460
UACC-62 = system: UACC-62
HCT-116 = system: HCT-116
OVCAR-5 = system: OVCAR-5
M14 = system: M14
HOP-62 = system: HOP-62
RPMI-8226 = system: RPMI-8226
HOP-92 = system: HOP-92
ACHN = system: ACHN
CCRF-CEM = system: CCRF-CEM
SNB-75 = system: SNB-75
SF-295 = system: SF-295
786-0 = system: 786-0
Malme-3M = system: Malme-3M
COLO 205 = system: COLO 205
RXF 631 = system: RXF 631
DMS-114 = system: DMS-114
SNB-78 = system: SNB-78
M19-MEL = system: M19-MEL
KM12 = system: KM12
HCT-15 = system: HCT-15
DLD-1 = system: DLD-1
SF-268 = system: SF-268
DMS-273 = system: DMS-273
SNB-19 = system: SNB-19
SK-MEL-5 = system: SK-MEL-5
A549 = system: A549
SK-MEL-2 = system: SK-MEL-2
KM-20L2 = system: KM-20L2
HL-60 = system: HL-60
OVCAR-4 = system: OVCAR-4
IGROV-1 = system: IGROV-1
K562 = system: K562
NCI-H522 = system: NCI-H522
TK-10 = system: TK-10
SW-620 = system: SW-620
HCC 2998 = system: HCC 2998
XF498 = system: XF498
NCI-H23 = system: NCI-H23
LXFL 529 = system: LXFL 529
UO-31 = system: UO-31
HT-29 = system: HT-29
SK-MEL-28 = system: SK-MEL-28
SF-539 = system: SF-539
OVCAR-3 = system: OVCAR-3
RXF 393 = system: RXF 393
LOX IMVI = system: LOX IMVI
SR = system: SR
SK-OV-3 = system: SK-OV-3
NCI-H226 = system: NCI-H226
CAKI-1 = system: CAKI-1

`CC(C)(C)CC(C)(C)c1cc2c(O)c(c1)Cc1cc(C(C)(C)CC(C)(C)C)cc(c1O)Cc1cc(C(C)(C)CC(C)(C)C)cc(c1O)Cc1cc(C(C)(C)CC(C)(C)C)cc(c1O)C2` was tested, and the GI50 (SN12C) was > 100 µM (inactive), the GI50 (MOLT-4) was > 100 µM (inactive) and the GI50 (U-251) was > 100 µM (inactive). For the same molecule, the GI50 (UACC-257) was > 100 µM (inactive), the GI50 (EKVX) was > 100 µM (inactive) and the GI50 (OVCAR-8) was > 100 µM (inactive). For the same molecule, the GI50 (NCI-H460) was > 100 µM (inactive), the GI50 (UACC-62) was > 100 µM (inactive) and the GI50 (HCT-116) was > 100 µM (inactive). For the same molecule, the GI50 (OVCAR-5) was > 100 µM (inactive), the GI50 (M14) was > 100 µM (inactive) and the GI50 (HOP-62) was > 100 µM (inactive). The GI50 (RPMI-8226) was > 100 µM (inactive), the GI50 (HOP-92) was > 100 µM (inactive) and the GI50 (ACHN) was > 100 µM (inactive). For the same molecule, the GI50 (CCRF-CEM) was > 100 µM (inactive), the GI50 (SNB-75) was > 100 µM (inactive) and the GI50 (SF-295) was > 100 µM (inactive). The GI50 (786-0) was > 100 µM (inactive), the GI50 (Malme-3M) was > 100 µM (inactive) and the GI50 (COLO 205) was > 100 µM (inactive). For the same molecule, the GI50 (RXF 631) was > 100 µM (inactive), the GI50 (DMS-114) was > 100 µM (inactive) and the GI50 (SNB-78) was > 100 µM (inactive). The GI50 (M19-MEL) was > 100 µM (inactive), the GI50 (KM12) was > 100 µM (inactive) and the GI50 (HCT-15) was greater than 100 µM. For the same molecule, the GI50 (DLD-1) was > 100 µM (inactive), the GI50 (SF-268) was > 100 µM (inactive) and the GI50 (DMS-273) was > 100 µM (inactive). For the same molecule, the GI50 (SNB-19) was > 100 µM (inactive), the GI50 (SK-MEL-5) was > 100 µM (inactive) and the GI50 (A549) was > 100 µM (inactive). The GI50 (SK-MEL-2) was > 100 µM (inactive), the GI50 (KM-20L2) was > 100 µM (inactive) and the GI50 (HL-60) was > 100 µM (inactive). The GI50 (OVCAR-4) was > 100 µM (inactive), the GI50 (IGROV-1) was > 100 µM (inactive) and the GI50 (K562) was > 100 µM (inactive). The GI50 (NCI-H522) was > 100 µM (inactive), the GI50 (TK-10) was > 100 µM (inactive) and the GI50 (SW-620) was > 100 µM (inactive). For the same molecule, the GI50 (HCC 2998) was > 100 µM (inactive), the GI50 (XF498) was > 100 µM (inactive) and the GI50 (NCI-H23) was > 100 µM (inactive). For the same molecule, the GI50 (LXFL 529) was > 100 µM (inactive), the GI50 (UO-31) was > 100 µM (inactive) and the GI50 (HT-29) was > 100 µM (inactive). For the same molecule, the GI50 (SK-MEL-28) was > 100 µM (inactive), the GI50 (SF-539) was > 100 µM (inactive) and the GI50 (OVCAR-3) was > 100 µM (inactive). For the same molecule, the GI50 (RXF 393) was > 100 µM (inactive).

In the case of `CCc1ccccc1NC(=O)C(=O)C(C#N)c1c(Cl)cccc1Cl` (stereo unspecified), the GI50 (SN12C) is reported as > 100 µM (inactive), the GI50 (MOLT-4) is reported as > 100 µM (inactive) and the GI50 (U-251) is reported as > 100 µM (inactive). For the same molecule, the GI50 (UACC-257) was > 100 µM (inactive), the GI50 (EKVX) was > 100 µM (inactive) and the GI50 (UACC-62) was > 100 µM (inactive). For the same molecule, the GI50 (HCT-116) was > 100 µM (inactive), the GI50 (M14) was > 100 µM (inactive) and the GI50 (RPMI-8226) was > 100 µM (inactive). For the same molecule, the GI50 (HOP-92) was > 100 µM (inactive), the GI50 (ACHN) was > 100 µM (inactive) and the GI50 (CCRF-CEM) was > 100 µM (inactive). The GI50 (SNB-75) was > 100 µM (inactive), the GI50 (SF-295) was > 100 µM (inactive) and the GI50 (786-0) was > 100 µM (inactive). The GI50 (Malme-3M) was > 100 µM (inactive), the GI50 (LOX IMVI) was > 100 µM (inactive) and the GI50 (RXF 631) was > 100 µM (inactive). The GI50 (SR) was > 100 µM (inactive), the GI50 (SK-OV-3) was > 100 µM (inactive) and the GI50 (SNB-78) was > 100 µM (inactive). For the same molecule, the GI50 (M19-MEL) was > 100 µM (inactive), the GI50 (KM12) was > 100 µM (inactive) and the GI50 (HCT-15) was greater than 100 µM. The GI50 (DLD-1) was > 100 µM (inactive), the GI50 (SF-268) was > 100 µM (inactive) and the GI50 (DMS-273) was > 100 µM (inactive). For the same molecule, the GI50 (SNB-19) was > 100 µM (inactive), the GI50 (NCI-H226) was > 100 µM (inactive) and the GI50 (A549) was > 100 µM (inactive). For the same molecule, the GI50 (SK-MEL-2) was > 100 µM (inactive), the GI50 (KM-20L2) was > 100 µM (inactive) and the GI50 (HL-60) was > 100 µM (inactive). The GI50 (IGROV-1) was > 100 µM (inactive), the GI50 (K562) was > 100 µM (inactive) and the GI50 (NCI-H522) was > 100 µM (inactive). For the same molecule, the GI50 (TK-10) was > 100 µM (inactive), the GI50 (SW-620) was > 100 µM (inactive) and the GI50 (XF498) was > 100 µM (inactive). For the same molecule, the GI50 (CAKI-1) was > 100 µM (inactive), the GI50 (NCI-H23) was > 100 µM (inactive) and the GI50 (LXFL 529) was > 100 µM (inactive). For the same molecule, the GI50 (UO-31) was > 100 µM (inactive), the GI50 (HT-29) was > 100 µM (inactive) and the GI50 (SK-MEL-28) was > 100 µM (inactive). The GI50 (SF-539) was > 100 µM (inactive) and the GI50 (OVCAR-3) was > 100 µM (inactive).

With `COc1ccc(C(=O)C(c2ccc(OC)cc2)C2(O)C(=O)Nc3ccccc32)cc1` (stereo unspecified) the GI50 (SN12C) was > 100 µM (inactive), the GI50 (MOLT-4) was > 100 µM (inactive) and the GI50 (U-251) was > 100 µM (inactive). For the same molecule, the GI50 (UACC-257) was > 100 µM (inactive), the GI50 (EKVX) was > 100 µM (inactive) and the GI50 (UACC-62) was > 100 µM (inactive). The GI50 (HCT-116) was > 100 µM (inactive), the GI50 (M14) was > 100 µM (inactive) and the GI50 (RPMI-8226) was > 100 µM (inactive). The GI50 (HOP-92) was > 100 µM (inactive), the GI50 (ACHN) was > 100 µM (inactive) and the GI50 (CCRF-CEM) was > 100 µM (inactive). For the same molecule, the GI50 (SNB-75) was 67.5 µM (inactive), the GI50 (SF-295) was > 100 µM (inactive) and the GI50 (786-0) was > 100 µM (inactive). The GI50 (Malme-3M) was > 100 µM (inactive), the GI50 (LOX IMVI) was 72.9 µM (inactive) and the GI50 (RXF 631) was > 100 µM (inactive). The GI50 (SR) was > 100 µM (inactive), the GI50 (SK-OV-3) was > 100 µM (inactive) and the GI50 (SNB-78) was > 100 µM (inactive). For the same molecule, the GI50 (M19-MEL) was > 100 µM (inactive), the GI50 (KM12) was > 100 µM (inactive) and the GI50 (HCT-15) was greater than 100 µM. The GI50 (DLD-1) was > 100 µM (inactive), the GI50 (SF-268) was > 100 µM (inactive) and the GI50 (DMS-273) was > 100 µM (inactive). For the same molecule, the GI50 (SNB-19) was > 100 µM (inactive), the GI50 (NCI-H226) was > 100 µM (inactive) and the GI50 (A549) was > 100 µM (inactive). The GI50 (SK-MEL-2) was > 100 µM (inactive), the GI50 (KM-20L2) was > 100 µM (inactive) and the GI50 (HL-60) was 98.6 µM (inactive). For the same molecule, the GI50 (IGROV-1) was > 100 µM (inactive), the GI50 (K562) was > 100 µM (inactive) and the GI50 (NCI-H522) was > 100 µM (inactive). For the same molecule, the GI50 (TK-10) was > 100 µM (inactive), the GI50 (SW-620) was > 100 µM (inactive) and the GI50 (XF498) was > 100 µM (inactive). The GI50 (CAKI-1) was > 100 µM (inactive), the GI50 (NCI-H23) was > 100 µM (inactive) and the GI50 (LXFL 529) was > 100 µM (inactive). For the same molecule, the GI50 (UO-31) was > 100 µM (inactive), the GI50 (HT-29) was 94.6 µM (inactive) and the GI50 (SK-MEL-28) was > 100 µM (inactive). The GI50 (SF-539) was > 100 µM (inactive) and the GI50 (OVCAR-3) was > 100 µM (inactive).
